We go through 4 molecules from patent EP0590919A1, “Therapeutic agents for parkinson's disease” (KYOWA HAKKO KOGYO CO., LTD., priority 1992, dated 1994).

A value given as a limit tells only on which side of the number the result lay.

For orientation: inhibition means how much of the control response was suppressed.

The first data set concerns dd-strain male mice. The data set is described as follows: Acute toxicity test (minimum lethal dose, oral). Format: in vivo. Conditions: oral administration, three mice per group, mortality seven days after administration. The method, then: Test compounds were orally administered to groups of dd-strain male mice weighing 20 ± 1 g, each group consisting of three mice. Seven days after the administration, minimum lethal dose (MLD) of each compound was determined by observing the mortality.
`CCn1c(=O)c2c(nc(/C=C/c3ccc(OC)cc3OC)n2C)n(CC)c1=O` [Compound 6, (E)-8-(2,4-Dimethoxystyryl)-1,3-diethyl-7-methylxanthine]: the MLD is given as more than 300 mg/kg.
Take `CCn1c(=O)c2c(nc(/C=C/c3cc(C)c(OC)cc3C)n2C)n(CC)c1=O` [Compound 12, (E)-1,3-Diethyl-8-(4-methoxy-2,5-dimethylstyryl)-7-methylxanthine]: the MLD is recorded as more than 300 mg/kg.
Still for that read-out and setting: the figure for `COc1ccc(/C=C/c2nc3c([nH]2)c(=O)n(C)c(=O)n3C)c(OC)c1C` [Compound 31, (E)-8-(2,4-Dimethoxy-3-methylstyryl)theophylline] is more than 100 mg/kg; for `COc1ccc(/C=C/c2nc3c(c(=O)n(C)c(=O)n3C)n2C)c(OC)c1C` [Compound 32, (E)-8-(2,4-Dimethoxy-3-methylstyryl)caffeine] it is more than 100 mg/kg.

For the next data set, the target named is T1, A₂ receptor (Rattus norvegicus, UniProt P30543).
T1 construct: from tissue; host or cells: rat corpus striatum membrane preparation
T1 sequence (P30543 whole entry): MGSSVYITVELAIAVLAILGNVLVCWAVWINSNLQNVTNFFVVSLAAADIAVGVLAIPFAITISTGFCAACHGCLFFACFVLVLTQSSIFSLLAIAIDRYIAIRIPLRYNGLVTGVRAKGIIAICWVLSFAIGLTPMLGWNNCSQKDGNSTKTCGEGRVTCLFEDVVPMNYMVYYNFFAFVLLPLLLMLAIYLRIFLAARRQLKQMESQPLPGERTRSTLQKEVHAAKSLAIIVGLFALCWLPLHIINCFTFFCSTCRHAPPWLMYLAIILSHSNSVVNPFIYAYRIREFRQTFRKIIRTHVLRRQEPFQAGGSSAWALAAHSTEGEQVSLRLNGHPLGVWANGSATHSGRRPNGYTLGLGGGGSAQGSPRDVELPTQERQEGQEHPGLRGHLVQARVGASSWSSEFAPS
The data set can be described thus: Adenosine A₂ receptor binding test (³H-NECA binding). Conditions: 10⁻⁴M; ³H-NECA binding, rat corpus striatum; read-out: Inhibition (%) A₂ Receptor. The method, then:
The similar procedure as in the above-described adenosine A₁ receptor binding test was repeated using rat corpus striatum to obtain the final precipitate of the tissue thereof. The precipitate was suspended in 50 mM Tris HCl buffer containing 10 mM magnesium chloride and 0.02 unit/mg tissue of adenosine deaminase (manufactured by Sigma Co.) to give a tissue concentration of 5 mg (wet weight)/ml.
The mixture solution was allowed to stand at 25°C for 120 minutes and then treated in the same manner as in the adenosine A₁ receptor binding test to determine the radioactivity bound to the A₂ receptors.
The inhibition rate of the test compound against the binding of A₂ receptor (³H-NECA binding) was calculated by the following equation: [formula] [Notes] • 1.
On to `COc1ccc(/C=C/c2nc3c([nH]2)c(=O)n(C)c(=O)n3C)c(OC)c1C` [Compound 31, (E)-8-(2,4-Dimethoxy-3-methylstyryl)theophylline], for which the inhibition at 100 µM came to 79%.
Turning to `COc1ccc(/C=C/c2nc3c(c(=O)n(C)c(=O)n3C)n2C)c(OC)c1C` [Compound 32, (E)-8-(2,4-Dimethoxy-3-methylstyryl)caffeine], the inhibition at 100 µM came to 98%.

Staying with this data set, now noted: 10⁻⁵M; ³H-NECA binding, rat corpus striatum; read-out: Inhibition (%) A₂ Receptor.
Take `COc1ccc(/C=C/c2nc3c([nH]2)c(=O)n(C)c(=O)n3C)c(OC)c1C` [Compound 31, (E)-8-(2,4-Dimethoxy-3-methylstyryl)theophylline]: the inhibition at 10 µM came to 89%.
For `COc1ccc(/C=C/c2nc3c(c(=O)n(C)c(=O)n3C)n2C)c(OC)c1C` [Compound 32, (E)-8-(2,4-Dimethoxy-3-methylstyryl)caffeine], the inhibition at 10 µM stood at 82%.

The same data set, now with this note: 10⁻⁶M; ³H-NECA binding, rat corpus striatum; read-out: Inhibition (%) A₂ Receptor.
In the case of `COc1ccc(/C=C/c2nc3c([nH]2)c(=O)n(C)c(=O)n3C)c(OC)c1C` [Compound 31, (E)-8-(2,4-Dimethoxy-3-methylstyryl)theophylline], the inhibition at 1 µM is 82%.
On the same count and under the same terms, in the case of `COc1ccc(/C=C/c2nc3c(c(=O)n(C)c(=O)n3C)n2C)c(OC)c1C` [Compound 32, (E)-8-(2,4-Dimethoxy-3-methylstyryl)caffeine] it was 84%.

Staying with this data set, now noted: 10⁻⁷M; ³H-NECA binding, rat corpus striatum; read-out: Inhibition (%) A₂ Receptor.
Consider `COc1ccc(/C=C/c2nc3c([nH]2)c(=O)n(C)c(=O)n3C)c(OC)c1C` [Compound 31, (E)-8-(2,4-Dimethoxy-3-methylstyryl)theophylline], for which the inhibition at 0.1 µM was found to be 74%.
On the same count and under the same terms, the figure for `COc1ccc(/C=C/c2nc3c(c(=O)n(C)c(=O)n3C)n2C)c(OC)c1C` [Compound 32, (E)-8-(2,4-Dimethoxy-3-methylstyryl)caffeine] is 83%.

For a further data set, the system named is Haloperidol-Induced Catalepsy. The data set can be described thus: Effect on haloperidol-induced catalepsy. Format: in vivo, mice. The settings on record: Mus musculus, 1 h; ten mice at each dose, effective = catalepsy score 3 or less, Probit analysis; oral; read-out: ED₅₀. How it is done:
Haloperidol (Janssen Pharmaceutica) suspended in 0.3% CMC was intraperitoneally administered to each mouse at a dose of 1.0 mg/kg. Test compounds were suspended in 0.3% CMC or in injectable distilled water (Otsuka Pharmaceutical Co., Ltd.) containing Tween 80. L-DOPA (Kyowa Hakko Kogyo Co., Ltd.) and benserazide hydrochloride (Kyowa Hakko Kogyo Co., Ltd.) were suspended in 0.3% CMC. One hour after the haloperidol administration, the test compound suspensions and the control suspension [injectable distilled water (Otsuka Pharmaceutical Co., Ltd.) containing Tween 80] containing no test compound were orally administered to separate groups of the mice (0.1 ml per 10 g of body weight). One hour after the administration of the test compound, the forelimbs of each mouse and subsequently the hindlimbs of the same mouse were placed on a 4.5 cm-high, 1.0 cm-wide bar and catalepsy was estimated. […] The catalepsy score and the standard of judgment are shown below. […] The number of the animals showing remission against catalepsy is the number of the mice for which the catalepsy score was not more than 4 points. […] The ED₅₀ values were calculated by Probit analysis.
`CCn1c(=O)c2c(nc(/C=C/c3ccc(OC)cc3OC)n2C)n(CC)c1=O` [Compound 6, (E)-8-(2,4-Dimethoxystyryl)-1,3-diethyl-7-methylxanthine]: the ED50 came out at 1.7 mg/kg.
On to `CCn1c(=O)c2c(nc(/C=C/c3cc(C)c(OC)cc3C)n2C)n(CC)c1=O` [Compound 12, (E)-1,3-Diethyl-8-(4-methoxy-2,5-dimethylstyryl)-7-methylxanthine], for which the ED50 stood at 2.7 mg/kg.

The data set is the same for the next values; noted with them: of five mice, catalepsy score not more than 4 points; 10 mg/kg orally.
Consider `CCn1c(=O)c2c(nc(/C=C/c3ccc(OC)cc3OC)n2C)n(CC)c1=O` [Compound 6, (E)-8-(2,4-Dimethoxystyryl)-1,3-diethyl-7-methylxanthine], for which the “Number of the Animals Showing Remission” value is 5.
The same measure, in the same setting: in the case of `CCn1c(=O)c2c(nc(/C=C/c3cc(C)c(OC)cc3C)n2C)n(CC)c1=O` [Compound 12, (E)-1,3-Diethyl-8-(4-methoxy-2,5-dimethylstyryl)-7-methylxanthine] it was 5; in that of `COc1ccc(/C=C/c2nc3c([nH]2)c(=O)n(C)c(=O)n3C)c(OC)c1C` [Compound 31, (E)-8-(2,4-Dimethoxy-3-methylstyryl)theophylline], 4.
Still for that read-out and setting: in the case of `COc1ccc(/C=C/c2nc3c(c(=O)n(C)c(=O)n3C)n2C)c(OC)c1C` [Compound 32, (E)-8-(2,4-Dimethoxy-3-methylstyryl)caffeine] it was 4.

Still in this data set, the particulars now being: rate of decrease in total score based on control group; 10 mg/kg orally.
Regarding `CCn1c(=O)c2c(nc(/C=C/c3ccc(OC)cc3OC)n2C)n(CC)c1=O` [Compound 6, (E)-8-(2,4-Dimethoxystyryl)-1,3-diethyl-7-methylxanthine], the “Remission Rate (%)” value came out at 76%.
Consider `CCn1c(=O)c2c(nc(/C=C/c3cc(C)c(OC)cc3C)n2C)n(CC)c1=O` [Compound 12, (E)-1,3-Diethyl-8-(4-methoxy-2,5-dimethylstyryl)-7-methylxanthine], for which the “Remission Rate (%)” value was 52%.
Same read-out and setting: in the case of `COc1ccc(/C=C/c2nc3c([nH]2)c(=O)n(C)c(=O)n3C)c(OC)c1C` [Compound 31, (E)-8-(2,4-Dimethoxy-3-methylstyryl)theophylline] it was 36%.
The same measure, in the same setting: the figure for `COc1ccc(/C=C/c2nc3c(c(=O)n(C)c(=O)n3C)n2C)c(OC)c1C` [Compound 32, (E)-8-(2,4-Dimethoxy-3-methylstyryl)caffeine] is 32%.

Still in this data set, the particulars now being: total catalepsy score of five mice (25 points at the full); 10 mg/kg orally, haloperidol 1.0 mg/kg i.p.
`CCn1c(=O)c2c(nc(/C=C/c3ccc(OC)cc3OC)n2C)n(CC)c1=O` [Compound 6, (E)-8-(2,4-Dimethoxystyryl)-1,3-diethyl-7-methylxanthine]: the “Total Score” value is 6.
Consider `CCn1c(=O)c2c(nc(/C=C/c3cc(C)c(OC)cc3C)n2C)n(CC)c1=O` [Compound 12, (E)-1,3-Diethyl-8-(4-methoxy-2,5-dimethylstyryl)-7-methylxanthine], for which the “Total Score” value was found to be 12.
With `COc1ccc(/C=C/c2nc3c([nH]2)c(=O)n(C)c(=O)n3C)c(OC)c1C` [Compound 31, (E)-8-(2,4-Dimethoxy-3-methylstyryl)theophylline], the “Total Score” value is listed as 16.
On the same count and under the same terms, the figure for `COc1ccc(/C=C/c2nc3c(c(=O)n(C)c(=O)n3C)n2C)c(OC)c1C` [Compound 32, (E)-8-(2,4-Dimethoxy-3-methylstyryl)caffeine] is 17.
